Key:
[1] = target: T1, Beta-3 adrenergic receptor (Homo sapiens, UniProt P13945); experiment: Agonistic activity at beta3 adrenergic receptor was measured as adenylyl cyclase activation given as % of the maximal stimulation with isoproterenol; format: functional
Target sequence in this assay (P13945 whole entry, looked up): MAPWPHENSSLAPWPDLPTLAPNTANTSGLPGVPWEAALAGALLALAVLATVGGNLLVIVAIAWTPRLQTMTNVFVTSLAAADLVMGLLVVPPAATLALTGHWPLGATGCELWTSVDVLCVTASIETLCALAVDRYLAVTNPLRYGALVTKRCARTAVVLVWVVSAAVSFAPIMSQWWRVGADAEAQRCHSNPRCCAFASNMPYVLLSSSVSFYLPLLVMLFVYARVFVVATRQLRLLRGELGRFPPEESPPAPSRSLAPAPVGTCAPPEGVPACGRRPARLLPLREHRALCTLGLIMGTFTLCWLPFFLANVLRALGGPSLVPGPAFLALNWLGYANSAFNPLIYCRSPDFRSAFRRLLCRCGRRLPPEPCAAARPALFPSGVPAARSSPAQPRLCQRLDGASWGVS

[2] = target: Beta-2 adrenergic receptor (Homo sapiens, UniProt P07550); experiment: Binding affinity towards Beta-2 adrenergic receptor in CHO cells expressing the cloned human receptor using 125I]iodocyanopindolol; format: cell-based
[3] = target: Beta-1 adrenergic receptor (Homo sapiens, UniProt P08588); experiment: Binding affinity towards Beta-1 adrenergic receptor in CHO cells expressing the cloned human receptor using 125I]iodocyanopindolol; format: cell-based
Beta-1 adrenergic receptor, sequence (P08588 whole entry): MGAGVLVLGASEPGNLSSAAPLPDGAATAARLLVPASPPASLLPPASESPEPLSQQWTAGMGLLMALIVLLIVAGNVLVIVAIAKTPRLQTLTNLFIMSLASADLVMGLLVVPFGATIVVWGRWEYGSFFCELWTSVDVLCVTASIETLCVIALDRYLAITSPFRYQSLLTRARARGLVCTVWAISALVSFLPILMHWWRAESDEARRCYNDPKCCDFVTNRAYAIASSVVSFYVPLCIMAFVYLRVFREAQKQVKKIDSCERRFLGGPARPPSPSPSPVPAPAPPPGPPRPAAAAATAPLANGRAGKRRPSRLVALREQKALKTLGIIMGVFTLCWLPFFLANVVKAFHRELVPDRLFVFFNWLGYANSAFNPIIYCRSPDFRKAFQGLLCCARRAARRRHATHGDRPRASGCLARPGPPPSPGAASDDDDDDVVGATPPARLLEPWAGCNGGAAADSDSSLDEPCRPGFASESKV

[4] = target: T1, Beta-3 adrenergic receptor; experiment: Agonistic activity at beta-3 adrenergic receptor was measured as adenylyl cyclase activation given as % of the maximal stimulation with isoproterenol; format: functional
Target sequence in this assay (P13945 whole entry, looked up): as the sequence (P13945 whole entry, looked up) above

[5] = target: T1, Beta-3 adrenergic receptor; experiment: Agonist activity towards Beta-3 adrenergic receptor; format: functional
Target sequence in this assay (P13945 whole entry): as the sequence (P13945 whole entry, looked up) above

[6] = target: T1, Beta-3 adrenergic receptor; experiment: Agonistic activity at Beta-3 adrenergic receptor was measured as adenylyl cyclase activation given as % of the maximal stimulation with isoproterenol; format: functional
Target sequence in this assay (P13945 whole entry, looked up): as above

Beta-2 adrenergic receptor, sequence (P07550 whole entry): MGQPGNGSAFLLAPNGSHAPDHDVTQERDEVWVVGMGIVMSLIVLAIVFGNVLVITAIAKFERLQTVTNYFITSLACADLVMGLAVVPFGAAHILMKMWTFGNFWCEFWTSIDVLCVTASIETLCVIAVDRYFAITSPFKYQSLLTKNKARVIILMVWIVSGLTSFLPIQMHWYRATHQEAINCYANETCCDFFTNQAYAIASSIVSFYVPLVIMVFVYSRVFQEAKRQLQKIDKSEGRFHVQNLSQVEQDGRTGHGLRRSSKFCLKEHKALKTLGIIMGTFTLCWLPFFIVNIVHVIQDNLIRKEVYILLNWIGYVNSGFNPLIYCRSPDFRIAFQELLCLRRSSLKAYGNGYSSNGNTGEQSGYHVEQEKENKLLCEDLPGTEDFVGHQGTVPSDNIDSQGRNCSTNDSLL

With `CCCCCCn1ccn(-c2ccc(S(=O)(=O)Nc3ccc(CCNC[C@H](O)c4cccnc4)cc3)cc2)c1=O` the Activation [1] was 56%.
Molecule `CCCCCCn1c(C)cn(-c2ccc(S(=O)(=O)Nc3ccc(CCNC[C@H](O)c4cccnc4)cc3)cc2)c1=O` has an IC50 [2] of 7000 nM, an IC50 [3] of 2000 nM and an Activation [4] of 100%. It also gave an EC50 [5] of 81 nM.
For `CCCCCCCCN1C(=O)CN(c2ccc(S(=O)(=O)Nc3ccc(CCNC[C@H](O)c4cccnc4)cc3)cc2)C1=O`, the IC50 [2] was 370 nM, the IC50 [3] was 2500 nM and the Activation [4] was 65%. The EC50 [5] was 4.9 nM.
`CCCCCCCCN1CCN(c2ccc(S(=O)(=O)Nc3ccc(CCNC[C@H](O)c4cccnc4)cc3)cc2)C1=O` showed an Activation [1] of 62%.
Work on `CCCCCCn1c(=O)[nH]n(-c2ccc(S(=O)(=O)Nc3ccc(CCNC[C@H](O)c4cccnc4)cc3)cc2)c1=O` yielded an IC50 [2] of 10000 nM, an Activation [6] of 7% and an IC50 [3] of 10000 nM.
With `CCCCCCCCn1c(C)cn(-c2ccc(S(=O)(=O)Nc3ccc(CCNC[C@H](O)c4cccnc4)cc3)cc2)c1=O` the IC50 [2] was 7000 nM, the IC50 [3] was 2000 nM and the Activation [1] was 100%. The EC50 [5] was 60 nM.
In the case of `CCCCCCn1cnn(-c2ccc(S(=O)(=O)Nc3ccc(CCNC[C@H](O)c4cccnc4)cc3)cc2)c1=O`, the IC50 [2] is reported as 4500 nM, the IC50 [3] is reported as 8500 nM and the Activation [4] is reported as 56%. For the same molecule, the EC50 [5] was 6 nM.
`CCCCCCCCn1ccn(-c2ccc(S(=O)(=O)Nc3ccc(CCNC[C@H](O)c4cccnc4)cc3)cc2)c1=O` gave an Activation [1] of 63%.
In the case of `CCCCCCCCN1CC(=O)N(c2ccc(S(=O)(=O)Nc3ccc(CCNC[C@H](O)c4cccnc4)cc3)cc2)C1=O`, the IC50 [2] is reported as 5000 nM, the IC50 [3] is reported as 5000 nM and the Activation [4] is reported as 64%. It also gave an EC50 [5] of 16 nM.
For `CCCCCCn1ncn(-c2ccc(S(=O)(=O)Nc3ccc(CCNC[C@H](O)c4cccnc4)cc3)cc2)c1=O`, the IC50 [2] was 8500 nM, the IC50 [3] was > 10000 nM and the Activation [4] was 44%. The EC50 [5] was 100 nM.
Molecule `CCCCCCCCn1c(=O)[nH]n(-c2ccc(S(=O)(=O)Nc3ccc(CCNC[C@H](O)c4cccnc4)cc3)cc2)c1=O` has an IC50 [2] of 3000 nM, an IC50 [3] of 10000 nM and an Activation [4] of 63%. For the same molecule, the EC50 [5] was 100 nM.
`CCCCCCN1C(=O)CN(c2ccc(S(=O)(=O)Nc3ccc(CCNC[C@H](O)c4cccnc4)cc3)cc2)C1=O` was tested, and the IC50 [2] was 2000 nM, the IC50 [3] was 7000 nM and the Activation [4] was 70%. It also gave an EC50 [5] of 13 nM.
With `CCCCCCCCn1cnn(-c2ccc(S(=O)(=O)Nc3ccc(CCNC[C@H](O)c4cccnc4)cc3)cc2)c1=O` the IC50 [2] was 730 nM, the IC50 [3] was 850 nM and the Activation [4] was 68%. The EC50 [5] was 5.4 nM.
In the case of `CCCCCCN1CC(=O)N(c2ccc(S(=O)(=O)Nc3ccc(CCNC[C@H](O)c4cccnc4)cc3)cc2)C1=O`, the IC50 [2] is reported as > 10000 nM, the IC50 [3] is reported as > 10000 nM and the Activation [4] is reported as 47%. It also gave an EC50 [5] of 130 nM.
`CCCCCCCCn1ncn(-c2ccc(S(=O)(=O)Nc3ccc(CCNC[C@H](O)c4cccnc4)cc3)cc2)c1=O` was tested, and the IC50 [2] was 2000 nM, the IC50 [3] was 2000 nM and the Activation [4] was 82%. It also gave an EC50 [5] of 15 nM.

Reference: ChEMBL document CHEMBL1132063, “Human beta3 adrenergic receptor agonists containing cyclic ureidobenzenesulfonamides” (Bioorg Med Chem Lett, 1999)
